In patent US4005075A, “Penicillins and their preparation” (Sumitomo Chemical Company, Limited, priority 1973, dated 1977):
Values after ≈ are worked out from the molar mass of the structure shown.

Assays:
Proteus vulgaris HX19 = experiment: Antimicrobial activity, agar dilution method (minimal inhibitory concentration); format: cell-based
Text: (§1) The antimicrobial activities of the compounds obtained in the above Examples determined by the standard test method (i.e. agar dilution method) as well as those of the following penicillins as disclosed in U.S. Pat. No. 3,433,784 are shown in Table 2: [drawing 59]

Escherichia coli NIHJ = experiment: as above; format: cell-based
Text: as §1

[1] = tested on: Psudomonas aeruginosa 104; experiment: as above; format: cell-based
Text: as §1

Proteus miravilis 2425 = experiment: as above; format: cell-based
Text: as §1

[2] = tested on: Staphylococcus aureus 209P; experiment: as above; format: cell-based
Text: as §1

[3] = tested on: Klebsiella pneumoniae 602; experiment: as above; format: cell-based
Text: as §1

Pseudomonas = conditions: prior art penicillins; cited from earlier work

| SMILES | MIC (Proteus vulgaris HX19) [µg/mL] | MIC (Escherichia coli NIHJ) [µg/mL] | MIC [1] [µg/mL] | MIC (Proteus miravilis 2425) [µg/mL] | MIC [2] [µg/mL] | MIC [3] [µg/mL] | anti-Pseudomonas activity (Pseudomonas) |
| --- | --- | --- | --- | --- | --- | --- | --- |
| CC1(C)S[C@@H]2[C@H](NC(=O)C(NC(=O)c3ccccn3)c3ccccc3)C(=O)N2[C@H]1C(=O)O (stereo partly shown) [Compound, reference compound] | 0.39 (≈ 0.858 µM) | – | – | – | – | – | – |
| CC1(C)S[C@@H]2[C@H](NC(=O)[C@H](NC(=O)c3nnc4ccccc4c3O)c3ccccc3)C(=O)N2[C@H]1C(=O)O [Example 4, D-α-(4-hydroxycinnoline-3-carbonamido)benzylpenicillin] | 0.78 (≈ 1.5 µM) | 12.5 (≈ 24 µM) | 12.5 (≈ 24 µM) | 12.5 (≈ 24 µM) | 0.78 (≈ 1.5 µM) | 12.5 (≈ 24 µM) | – |
| CC1(C)S[C@@H]2[C@H](NC(=O)[C@H](NC(=O)c3cnc4c(c3O)CCCC4)c3ccccc3)C(=O)N2[C@H]1C(=O)O [Example 12] | 0.05 (≈ 0.0953 µM) | 12.5 (≈ 23.8 µM) | 12.5 (≈ 23.8 µM) | 6.25 (≈ 11.9 µM) | 0.78 (≈ 1.49 µM) | 6.25 (≈ 11.9 µM) | – |
| COc1cc2ncc(C(=O)N[C@@H](C(=O)N[C@@H]3C(=O)N4[C@@H]3SC(C)(C)[C@@H]4C(=O)O)c3ccccc3)c(O)c2cn1 [Example 16] | 0.2 (≈ 0.363 µM) | – | 6.25 (≈ 11.3 µM) | – | – | 6.25 (≈ 11.3 µM) | – |
| Cc1ccc2c(O)c(C(=O)N[C@@H](C(=O)N[C@@H]3C(=O)N4[C@@H]3SC(C)(C)[C@@H]4C(=O)O)c3ccc(O)cc3)cnc2n1 [Example 19] | 0.39 (≈ 0.707 µM) | 6.25 (≈ 11.3 µM) | – | 25 (≈ 45.3 µM) | 1.56 (≈ 2.83 µM) | – | – |
| CC1(C)S[C@@H]2[C@H](NC(=O)[C@H](NC(=O)c3cnc4cn[nH]c4c3O)c3ccccc3)C(=O)N2[C@H]1C(=O)O [Example 20] | 0.1 (≈ 0.196 µM) | 3.13 (≈ 6.13 µM) | 6.25 (≈ 12.2 µM) | 3.13 (≈ 6.13 µM) | 0.78 (≈ 1.53 µM) | 6.25 (≈ 12.2 µM) | – |
| CCOc1cnc2ccccc2c1C(=O)NC(C(=O)N[C@@H]1C(=O)N2[C@@H]1SC(C)(C)[C@@H]2C(=O)O)c1ccccc1 (stereo partly shown) [B, reference compound] | 12.5 (≈ 22.8 µM) | 50 (≈ 91.1 µM) | 100 (≈ 182 µM) | 100 (≈ 182 µM) | 0.39 (≈ 0.711 µM) | 25 (≈ 45.6 µM) | – |
| CC1(C)S[C@@H]2[C@H](NC(=O)[C@H](NC(=O)c3cnc4ccccc4c3O)c3ccccc3)C(=O)N2[C@H]1C(=O)O [Example 9] | 0.2 (≈ 0.384 µM) | – | – | – | – | – | – |
| CC1(C)S[C@@H]2[C@H](NC(=O)[C@H](NC(=O)c3ncccc3O)c3ccccc3)C(=O)N2[C@H]1C(=O)O [Example 10] | 0.2 (≈ 0.425 µM) | 6.25 (≈ 13.3 µM) | 6.25 (≈ 13.3 µM) | 25 (≈ 53.1 µM) | 0.2 (≈ 0.425 µM) | 25 (≈ 53.1 µM) | – |
| CC1(C)S[C@@H]2[C@H](NC(=O)C(C(=O)O)c3ccccc3)C(=O)N2[C@H]1C(=O)O (stereo partly shown) [Carbenicillin, reference compound] | 0.78 (≈ 2.06 µM) | – | 50 (≈ 132 µM) | – | – | – | not sufficiently strong |
| CC1(C)S[C@@H]2[C@H](NC(=O)[C@H](NC(=O)c3cnc4ccccc4c3O)c3ccc(O)cc3)C(=O)N2[C@H]1C(=O)O [Example 22] | 0.2 (≈ 0.373 µM) | 6.25 (≈ 11.6 µM) | – | – | – | – | – |
| CN(C)c1ccc2ncc(C(=O)N[C@@H](C(=O)N[C@@H]3C(=O)N4[C@@H]3SC(C)(C)[C@@H]4C(=O)O)c3ccc(O)cc3)c(O)c2n1 [Example 14] | 0.1 (≈ 0.172 µM) | 1.56 (≈ 2.69 µM) | 3.13 (≈ 5.39 µM) | 1.56 (≈ 2.69 µM) | 3.13 (≈ 5.39 µM) | 3.13 (≈ 5.39 µM) | – |
| CC1(C)S[C@@H]2[C@H](NC(=O)[C@H](NC(=O)c3cncnc3O)c3ccccc3)C(=O)N2[C@H]1C(=O)O [Example 8] | 0.05 (≈ 0.106 µM) | 25 (≈ 53 µM) | 3.13 (≈ 6.64 µM) | 12.5 (≈ 26.5 µM) | 0.39 (≈ 0.827 µM) | 100 (≈ 212 µM) | – |
| CC1(C)S[C@@H]2[C@H](NC(=O)[C@H](NC(=O)c3nc4ccccc4nc3O)c3ccccc3)C(=O)N2[C@H]1C(=O)O [Example 21] | 0.78 (≈ 1.5 µM) | 6.25 (≈ 12 µM) | 1.56 (≈ 2.99 µM) | 25 (≈ 47.9 µM) | 0.2 (≈ 0.383 µM) | 12.5 (≈ 24 µM) | – |
| Cc1ccc(C(=O)N[C@@H](C(=O)N[C@@H]2C(=O)N3[C@@H]2SC(C)(C)[C@@H]3C(=O)O)c2ccccc2)c(O)n1 [Example 13] | 0.2 (≈ 0.413 µM) | 12.5 (≈ 25.8 µM) | 12.5 (≈ 25.8 µM) | 12.5 (≈ 25.8 µM) | 0.39 (≈ 0.805 µM) | 25 (≈ 51.6 µM) | – |
| CC1(C)S[C@@H]2[C@H](NC(=O)[C@H](NC(=O)c3ccnnc3O)c3ccccc3)C(=O)N2[C@H]1C(=O)O [Example 5, D-α-(3hydroxypyridazine-4-carbonamido)benzylpenicillin] | 0.05 (≈ 0.106 µM) | 12.5 (≈ 26.5 µM) | 3.13 (≈ 6.64 µM) | 6.25 (≈ 13.3 µM) | 0.39 (≈ 0.827 µM) | 6.25 (≈ 13.3 µM) | – |
| CN(C)c1ccc2ncc(C(=O)N[C@@H](C(=O)N[C@@H]3C(=O)N4[C@@H]3SC(C)(C)[C@@H]4C(=O)O)C3=CCC=CC3)c(O)c2n1 [Example 28] | 0.05 (≈ 0.0882 µM) | 1.56 (≈ 2.75 µM) | 3.13 (≈ 5.52 µM) | 1.56 (≈ 2.75 µM) | 0.78 (≈ 1.38 µM) | 6.25 (≈ 11 µM) | – |
| CC1(C)S[C@@H]2[C@H](NC(=O)[C@H](NC(=O)c3cnccc3O)c3ccc(O)cc3)C(=O)N2[C@H]1C(=O)O [Example 18] | 0.2 (≈ 0.411 µM) | 12.5 (≈ 25.7 µM) | 3.13 (≈ 6.43 µM) | 25 (≈ 51.4 µM) | 1.56 (≈ 3.21 µM) | 200 (≈ 411 µM) | – |
| Cc1ccc2ncc(C(=O)N[C@@H](C(=O)N[C@@H]3C(=O)N4[C@@H]3SC(C)(C)[C@@H]4C(=O)O)c3ccc(O)cc3)c(O)c2n1 [Example 26] | 0.05 (≈ 0.0906 µM) | 1.56 (≈ 2.83 µM) | – | – | – | – | – |
| CC1(C)S[C@@H]2[C@H](NC(=O)[C@H](NC(=O)c3cnc4cccnc4c3O)C3=CCC=CC3)C(=O)N2[C@H]1C(=O)O [Example 6] | < 0.05 | 1.56 (≈ 2.98 µM) | 1.56 (≈ 2.98 µM) | 3.13 (≈ 5.98 µM) | 0.39 (≈ 0.745 µM) | 3.13 (≈ 5.98 µM) | – |
| COc1ccc2ncc(C(=O)N[C@@H](C(=O)N[C@@H]3C(=O)N4[C@@H]3SC(C)(C)[C@@H]4C(=O)O)c3ccc(O)cc3)c(O)c2n1 [Example 27] | 0.05 (≈ 0.0881 µM) | 3.13 (≈ 5.51 µM) | – | – | – | – | – |
| CC1(C)S[C@@H]2[C@H](NC(=O)[C@H](NC(=O)c3nnc4ccccc4c3O)c3ccc(O)cc3)C(=O)N2[C@H]1C(=O)O [Example 23] | 0.78 (≈ 1.45 µM) | – | – | – | – | – | – |
| CC1(C)S[C@@H]2[C@H](NC(=O)[C@H](NC(=O)c3cnc4cccnc4c3O)c3ccccc3)C(=O)N2[C@H]1C(=O)O [Example 1, D-α-(4-hydroxy-1,5-naphthyridine-3-carbonamido)benzylpenicillin] | 0.1 (≈ 0.192 µM) | 1.56 (≈ 2.99 µM) | 1.56 (≈ 2.99 µM) | 3.13 (≈ 6 µM) | 0.78 (≈ 1.5 µM) | 6.25 (≈ 12 µM) | – |
| CC1(C)S[C@@H]2[C@H](NC(=O)C(c3ccccc3)S(=O)(=O)O)C(=O)N2[C@H]1C(=O)O (stereo partly shown) [Sulfocillin] | – | – | – | – | – | – | not sufficiently strong |
| CC1(C)S[C@@H]2[C@H](NC(=O)[C@H](NC(=O)c3cnccc3O)c3ccccc3)C(=O)N2[C@H]1C(=O)O [Example 3, D-α-(4-hydroxypyridine-3-carbonamido)benzylpenicillin] | 0.1 (≈ 0.213 µM) | 25 (≈ 53.1 µM) | 3.13 (≈ 6.65 µM) | 6.25 (≈ 13.3 µM) | 0.39 (≈ 0.829 µM) | 25 (≈ 53.1 µM) | – |
| CC1(C)S[C@@H]2[C@H](NC(=O)[C@H](NC(=O)c3cnc4cccnc4c3O)c3ccc(O)cc3)C(=O)N2[C@H]1C(=O)O (mixture of isomers) [Example 2, D-α-(4-hydroxy-1,5-naphthyridine-3-carbonamido)-p-hydroxyphenylacetamidopenicillanic acid] | 0.0125 | 0.78 | 0.78 | – | 1.56 | 6.25 | – |
| Cc1ccc2c(O)c(C(=O)N[C@@H](C(=O)N[C@@H]3C(=O)N4[C@@H]3SC(C)(C)[C@@H]4C(=O)O)c3ccccc3)cnc2n1 [Example 15] | 0.2 (≈ 0.373 µM) | 3.13 (≈ 5.84 µM) | 3.13 (≈ 5.84 µM) | 3.13 (≈ 5.84 µM) | 0.39 (≈ 0.728 µM) | 1.56 (≈ 2.91 µM) | – |
| CC(=O)Nc1ccc2ncc(C(=O)N[C@@H](C(=O)N[C@@H]3C(=O)N4[C@@H]3SC(C)(C)[C@@H]4C(=O)O)c3ccccc3)c(O)c2c1 [Example 17] | 0.1 (≈ 0.173 µM) | 12.5 (≈ 21.6 µM) | 6.25 (≈ 10.8 µM) | 3.13 (≈ 5.42 µM) | 0.78 (≈ 1.35 µM) | 3.13 (≈ 5.42 µM) | – |
| CC1(C)S[C@@H]2[C@H](NC(=O)[C@H](NC(=O)c3cnc(O)nc3O)c3ccccc3)C(=O)N2[C@H]1C(=O)O [Example 7] | 0.05 (≈ 0.103 µM) | 12.5 (≈ 25.6 µM) | 3.13 (≈ 6.42 µM) | 6.25 (≈ 12.8 µM) | 0.39 (≈ 0.8 µM) | 25 (≈ 51.3 µM) | – |
| CC1(C)S[C@@H]2[C@H](NC(=O)[C@H](NC(=O)c3cccnc3O)c3ccccc3)C(=O)N2[C@H]1C(=O)O [Example 11] | 0.2 (≈ 0.425 µM) | 12.5 (≈ 26.6 µM) | 6.25 (≈ 13.3 µM) | 25 (≈ 53.1 µM) | 0.39 (≈ 0.829 µM) | 25 (≈ 53.1 µM) | – |
